Assay results taken from paper PMC6555645 (Angewandte Chemie (International ed. in English), 2019).

Tests used:
Tar14 = biological target: T1, Tar14 (Saccharomonospora piscinae, UniProt W5VG40); assay: in vitro chlorination assay; assay type: biochemical; details: with flavin and a flavin reductase system; chloride
T1 sequence (W5VG40 1-534): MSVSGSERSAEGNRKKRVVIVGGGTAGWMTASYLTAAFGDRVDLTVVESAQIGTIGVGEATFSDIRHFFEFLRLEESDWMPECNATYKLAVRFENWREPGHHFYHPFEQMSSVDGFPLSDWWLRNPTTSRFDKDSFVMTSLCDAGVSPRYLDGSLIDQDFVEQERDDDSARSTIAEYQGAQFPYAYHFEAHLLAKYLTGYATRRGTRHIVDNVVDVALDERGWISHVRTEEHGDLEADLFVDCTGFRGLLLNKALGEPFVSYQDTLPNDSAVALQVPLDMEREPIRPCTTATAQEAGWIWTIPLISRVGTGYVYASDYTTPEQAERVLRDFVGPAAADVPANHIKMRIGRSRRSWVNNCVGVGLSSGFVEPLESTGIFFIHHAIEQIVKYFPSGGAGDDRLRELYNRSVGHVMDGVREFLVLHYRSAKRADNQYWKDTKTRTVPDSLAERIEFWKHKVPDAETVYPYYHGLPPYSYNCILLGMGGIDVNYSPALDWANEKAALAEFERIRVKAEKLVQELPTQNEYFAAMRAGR

Tar13 = biological target: T2, Tar13 (Saccharomonospora piscinae, UniProt W5VMS0); assay: in vitro dioxygenase assay; assay type: biochemical; details: heme-dependent TDO; O2
T2 sequence (W5VMS0 1-236): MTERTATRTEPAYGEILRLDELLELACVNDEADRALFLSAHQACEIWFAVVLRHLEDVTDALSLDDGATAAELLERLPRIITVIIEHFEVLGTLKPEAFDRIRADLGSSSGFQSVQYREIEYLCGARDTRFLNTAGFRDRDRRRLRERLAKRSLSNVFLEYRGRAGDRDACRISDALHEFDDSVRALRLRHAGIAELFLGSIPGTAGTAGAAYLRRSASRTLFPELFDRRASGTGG

SMILES | Km (Tar14) [µM] | Km (Tar13) [µM]
N[C@@H](Cc1c[nH]c2ccccc12)C(=O)O [compound 4, L-Trp] | 12 | –
N[C@@H](Cc1c[nH]c2cc(Cl)ccc12)C(=O)O [compound 7, L-6-Cl-Trp] | – | 112
